The values that follow come from patent US8188055B2, “Inactivators of O6-alkylguanine-DNA alkyltransferase” (The United States of America, as represented by the …, priority 2007, dated 2012).

Read-outs that look alike come from different tables or passages of the source.

The target in series [1] is T1, human alkyltransferase (Homo sapiens, UniProt P16455).
T1 sequence (P16455 1-207): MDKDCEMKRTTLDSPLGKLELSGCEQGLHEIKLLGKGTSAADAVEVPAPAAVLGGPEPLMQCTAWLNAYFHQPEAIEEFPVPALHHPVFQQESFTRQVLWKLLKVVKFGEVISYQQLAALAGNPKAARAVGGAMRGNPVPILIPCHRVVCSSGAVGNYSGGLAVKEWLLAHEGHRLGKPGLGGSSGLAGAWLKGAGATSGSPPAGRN
To be noted: previously published, read-out: ED50 for inactivation of alkyltransferase, cited from earlier work.

The test system of series [2] is human tumor cell extracts. The experiment in a line: Release of folate from esters by human tumor cell extracts. Format: in vitro ADME. As to conditions: 200 μM ester, 2 mg lysate protein, pH 7.4, 37° C. As to the method:
Cells are trypsinized, washed with Hank's balanced salt solution, counted and pelleted. On ice, the cell pellets are resuspended in 50 mM sodium phosphate, 5 mM DTT, pH 7.4 at a concentration of 10^8 cells/ml and disrupted by sonication. The sonicated cells are centrifuged at 12,000×g for 10 min and the supernatant is removed. Complete mini protease inhibitor (Roche, Mannheim Germany) is added as directed by the supplier. Lysate total protein concentration is determined, and the lysates are frozen until used at −20° C. Reactions (600 μL), containing one of the ester substrates (200 μM) and 2 mg of lysate protein in 50 mM phosphate buffer (pH 7.4) are incubated at 37° C. At various times 50 μL, are removed for analysis by HPLC. The amount of folic acid liberated is used to determine the extent of ester hydrolysis.
The rate of release of folate is about 2.2% per day from 1; 3.2% per day from 2; and 0.9% per day from 3. […] The extent of conversion to folate by human tumor cell extracts can vary slightly according to the cell type with MCF-7 cells showing the highest rate of conversion.

For another series, the system named is HT29 cells. Put plainly: Sensitization of HT29 cells to killing by BCNU, colony-forming assay. To be noted: RPMI medium, drug 2 h prior to 40 μM BCNU for 2 h. Format: cell-based. As to the method: KB, HT29 and A549 cells are grown in RPMI 1640 medium or in RPMI medium lacking folate in the presence of 10% fetal bovine serum. The effect of alkyltransferase inactivators on the sensitivity of cells to BCNU is determined using a colony-forming assay (Wei et al., J. Med. Chem. 2005, 48, 256-261; Nelson et al., J. Med. Chem. 2004, 47, 3887-3891; Chae et al., J. Med. Chem. 1994, 37, 342-347; and Dolan et al., Proc. Natl. Acad. Sci. U.S.A. 1990, 87, 5368-5372). Cells are plated at a density of 10^6 in 25 cm^2 flasks and 24 h later are incubated with different concentrations of potential inhibitors for 2-8 h as indicated before exposure to 20 or 40 μM BCNU for 2 h as previously described (Wei et al., J. Med. Chem. 2005, 48, 256-261; Nelson et al., J. Med. Chem. 2004, 47, 3887-3891). After 2 h, the medium is replaced with fresh medium containing the drug but no BCNU and the cells are left to grow for an additional 16-18 h. The cells are then replated at densities of 250-1000 cells per 25 cm^2 flask and grown for 8 days until discrete colonies have formed. The colonies are washed with 0.9% saline solution, stained with 0.5% crystal violet in ethanol, and counted.

The target of series [3] is T1, human alkyltransferase. The experiment in a line: Inactivation of purified recombinant human alkyltransferase in vitro. As to conditions: for inactivation of alkyltransferase compared with parent compound: comparison in words. The format is biochemical. As to the method:
ED50 values for the inactivation of purified human alkyltransferase in vitro are obtained as previously described (Nelson et al., J. Med. Chem. 2004, 47, 3887-3891 and Pegg et al., Biochem. Pharmacol. 1997, 53, 1559-1564). Purified recombinant human alkyltransferase is incubated with different concentrations of prodrugs in 0.5 mL of reaction buffer (50 mM Tris-HCl, pH 7.6, 0.1 mM EDTA, 5.0 mM dithiothreitol) containing 50 μg of hemocyanin or 10 μg calf thymus DNA for 30 min at 37° C.

Series [4] can be described thus: Release of folate on incubation in neutral solution (ester stability). Format: physicochemical. As to conditions: incubated in neutral solution.
The mark [5] stands for this setting: +DNA (10 μg calf thymus DNA), 30 min at 37° C, read-out: ED50 for inactivation of alkyltransferase.
The mark [6] stands for this setting: absence of DNA, read-out: ED50 value in the absence of DNA.

As to `Nc1nc(OCc2ccccc2)c2ncn([C@H]3C[C@H](O)[C@@H](CO)O3)c2n1` [O^6-benzyl-2′-deoxyguanosine], the EC50 at human alkyltransferase [1] (+DNA) is 40 µM; at human alkyltransferase [1] (−DNA) it was 2 µM.

With `Nc1nc(OCc2ccccc2)c2ncn([C@H]3CC(O)[C@@H](COC(=O)CC[C@H](NC(=O)c4ccc(NCc5cnc6nc(N)[nH]c(=O)c6n5)cc4)C(=O)O)O3)c2n1` (stereo partly shown) [Compound 2, O^6-Benzyl-5′-O-[γ-folyl]-2′-deoxyguanosine], in series [2], the “release of folate by extracts from human tumor cells” value (from here on “release of folate by extracts”) is “able to release folate”. For the same molecule, in the series with HT29 cells, the “sensitization of HT29 cells to killing by BCNU” value is given as “able to sensitize HT29 cells to killing by BCNU”. Also, the results for the EC50 at human alkyltransferase [3] (setting [5]) and at human alkyltransferase [3] (setting [6]) were 3.06 ± 0.18 µM and 0.64 µM, respectively. The “increase of ED50 when DNA is present” value at human alkyltransferase [3] (+DNA versus −DNA) is given as 5 fold. Moreover, the “inactivation of alkyltransferase compared with parent compound” value on human alkyltransferase [3] is on record as “more active than O^6-benzyl-2′-deoxyguanosine itself”. Also, the “rate of release of folate” value in series [4] is recorded as roughly 3.2 % per day.

As to `Nc1nc(OCc2ccccc2)c2ncn([C@H]3CC(OC(=O)CC[C@H](NC(=O)c4ccc(NCc5cnc6nc(N)[nH]c(=O)c6n5)cc4)C(=O)O)[C@@H](CO)O3)c2n1` (stereo partly shown) [Compound 1, O^6-Benzyl-3′-O-[γ-folyl]-2′-deoxyguanosine], the “release of folate by extracts” value in series [2] is recorded as “able to release folate”. Moreover, the “sensitization of HT29 cells to killing by BCNU” value with HT29 cells is recorded as “able to sensitize HT29 cells to killing by BCNU”. Moreover, the EC50 at human alkyltransferase [3] (setting [5]) was 0.68 µM. Further, at human alkyltransferase [3] (absence of DNA), the “ED50 lower than O^6-benzylguanine” value was determined as 10 times and the “ED50 lower than the parent O^6-benzyl-2′-deoxyguanosine” value stood at 100 times. Further, the EC50 on human alkyltransferase [3] (setting [6]) was found to be 0.016 µM. In addition, the “inactivation of alkyltransferase compared with parent compound” value on human alkyltransferase [3] was “more active than O^6-benzyl-2′-deoxyguanosine itself”. In addition, the “rate of release of folate” value in series [4] is recorded as “about 2.2 % per day”.

For the molecule `Nc1nc(OCc2ccc(COC(=O)CC[C@H](NC(=O)c3ccc(NCc4cnc5nc(N)[nH]c(=O)c5n4)cc3)C(=O)O)cc2)c2nc[nH]c2n1` [Compound 3, O^6-[4-[(γ-folyl)-oxymethyl]benzyl]guanine], the “release of folate by extracts” value in series [2] is on record as “able to release folate”. Moreover, the EC50 is 0.24 µM at human alkyltransferase [3] (setting [5]) and 0.7 µM at human alkyltransferase [3] (−DNA (hemocyanin), 30 min at 37° C, read-out: ED50 for inactivation of alkyltransferase). For the same molecule, on human alkyltransferase [3], the “inactivation of alkyltransferase compared with parent compound” value is recorded as “slightly less effective than the free base parent”. In addition, in series [4], the “rate of release of folate” value is roughly 0.9 % per day.
